Measured values as given in patent US9006241B2, “Pyrimidine derivatives” (Noviga Research AB, priority 2011, dated 2015).

Test system: CCRF-CEM cancer cells - leukemia
Test: Fluorometric Microculture Cytotoxicity Assay (FMCA), CCRF-CEM
Assay type: cell-based
Details: Homo sapiens, 72 h incubation
Text: The Fluorometric Microculture Cytotoxicity Assay, FMCA (Larsson, R., et al.; Anticancer Res, 1989, 9, 1111-1119), is a three day non-clonogenic microplate-based cell viability assay used for measurement of the cytotoxic and/or cytostatic effect of compounds in vitro (Lindhagen, E. et al.; Nat. Protoc., 2008, 3, 1364-1369). FMCA represents a valuable method to measure cytotoxicity in a number of cell types, both cell lines and primary cells from patients (Larsson, R., et al.; Int. J. Cancer, 1992, 50, 177-185; Fridborg, H., et al.; Eur. J. Cancer, 1999. 35, 424-432; Dhar, S., et al.; Br. J. Cancer, 1996, 74, 888-896).
FMCA is based on the principle that fluorescein diacetate (FDA) is converted to the fluorescent probe fluorescein by esterases in the plasma membranes of living cells. For experiments, 96 or 384-well microplates are prepared with compounds and stored at −70° C. until use. Cells are then seeded into the drug-prepared plates and placed in an incubator for 72 h. On the last day of incubation, the plates are washed and a buffer containing FDA is added and incubated with the cells for 45 minutes. Finally the fluorescence per well is measured in a fluorometer and a Survival Index % (SI) for each compound-treated well is calculated with the equation: Compound-treated cells minus blank divided by control cells minus blank. A high SI-value indicates a large percentage of living cells and vice versa.
In subsequent experiments, compounds were tested, along with a number of approved cancer drugs (dasatinib, pazopanib, sorafenib, and sunitinib) as described above. Initially, the acute lymphoblastic leukemia cell line CCRF-CEM was used throughout. In the assay plates, medium was added to six empty wells (blank wells) and wells were filled with PBS and cell suspension and served as control wells. SI-values were then calculated for each compound-treated well as described above. All experiments were conducted twice and a new batch of plates was prepared for each experiment.
For dose-response experiments, 384-well plates were prepared as follows:
Compounds of the invention as well comparative kinase inhibitors sorafenib sunitinib, dasatinib, pazopanib and a reference compound disclosed in WO 2009/071535 (compound #107) were diluted with PBS to a concentration ten-times higher than the desired starting concentration. Then, a Biomek 2000 liquid handling system was employed to serially dilute the compounds in a deep-well 384-well plate. From this plate, assay plates containing 5 μl compound per well were prepared with the Biomek 2000. Certain compounds precipitated when diluted with PBS, and these compounds were therefore prepared in a 96-well plate manually as described above using culture medium RPMI 1640 instead of PBS.
The compounds were also tested at five concentrations, with five times serial dilution on the following cell types: CCRF-CEM, hTERT-RPE1 (normal retinal epithelial cells), hRPTEpiC (normal renal cells), and peripheral blood mononuclear cells (PBMC). Each experiment was performed three times, except for PBMC and hRPTEpiC, which were performed twice. SI-values were calculated, graphs were plotted using GraphPadPrism 5.0 (GraphPad Software Inc. La Jolla, Calif.) and IC50-values for each cell type and compound were determined from the curves.

Compared with `COc1ccc2[nH]cc(CCNc3nccc(Nc4ccc5c(c4)nc(C)n5C)n3)c2c1` [Example 53, N^4-(1,2-dimethyl-1H-benzo[d]imidazol-5-yl)-N^2-[2-(5-methoxy-1H-indol-3-yl)ethyl]pyrimidine-2,4-diamine], `COc1ccc2[nH]cc(CCNc3nccc(Nc4ccc5c(c4)nc(CO)n5C)n3)c2c1` [Example 60, (5-{2-[2-(5-methoxy-1H-indol-3-yl)ethylamino]pyrimidin-4-ylamino}-1-methyl-1H-benzo[d]imidazol-2-yl)methanol] is 6.4-fold higher in EC50: 33 nM for the first, 210 nM for the second.

`COc1ccc2[nH]cc(CCNc3nccc(Nc4cccc5c4ccn5C)n3)c2c1` [Example 54, N^2-[2-(5-methoxy-1H-indol-3-yl)ethyl]-N^4-(1-methyl-1H-indol-4-yl)pyrimidine-2,4-diamine] and `COc1ccc2[nH]cc(CCNc3ccnc(Nc4cccc5c4ccn5C)n3)c2c1` [Example 84, N^4-[2-(5-methoxy-1H-indol-3-yl)ethyl]-N^2-(1-methylindol-4-yl)pyrimidine-2,4-diamine] cannot be ordered by EC50: 2.8 nM for the first, less than 100 nM for the second.

`CCOc1ccc2[nH]cc(CCNc3nc(C)cc(Nc4ccc5[nH]c(C)cc5c4)n3)c2c1` [Example 55, N^2-[2-(5-ethoxy-1H-indol-3-yl)ethyl]-6-methyl-N^4-(2-methyl-1H-indol-5-yl)pyrimidine-2,4-diamine] and `CCOc1ccc2[nH]cc(CCNc3nc(Nc4ccc5[nH]c(C)cc5c4)cc(C(N)=O)n3)c2c1` [Example 85, 2-[2-(5-ethoxy-1H-indol-3-yl)ethylamino]-6-[(2-methyl-1H-indol-5-yl)amino]pyrimidine-4-carboxamide] cannot be ordered by EC50: 53 nM for the first, less than 100 nM for the second.

First: COc1ccc2[nH]c(C)c(CCNc3nc(C)cc(Nc4ccc5[nH]c(C)cc5c4)n3)c2c1 [Example 56, N^2-[2-(5-methoxy-2-methyl-1H-indol-3-yl)ethyl]-6-methyl-N^4-(2-methyl-1H-indol-5-yl)pyrimidine-2,4-diamine]
Second: COc1ccc2[nH]cc(CCNc3nc(C)cc(Nc4ccc5[nH]c(C)nc5c4)n3)c2c1 [Example 57, N^2-[2-(5-methoxy-1H-indol-3-yl)ethyl]-6-methyl-N^4-(2-methyl-1H-benzo[d]imidazol-5-yl)pyrimidine-2,4-diamine]
The EC50 of the first is 1.8-fold lower: 130 nM for the first, 230 nM for the second. The first is the more potent here.

Going from `CCOc1ccc2[nH]cc(CCNc3nc(C)cc(Nc4ccc5[nH]c(C)nc5c4)n3)c2c1` [Example 58, N^2-[2-(5-ethoxy-1H-indol-3-yl)ethyl]-6-methyl-N^4-(2-methyl-1H-benzo[d]imidazol-5-yl)pyrimidine-2,4-diamine] to `CCOc1ccc2[nH]cc(CCNc3nccc(Nc4ccc5cc(C)[nH]c5c4)n3)c2c1` [Example 74, N^2-[2-(5-ethoxy-1H-indol-3-yl)ethyl]-N^4-(2-methyl-1H-indol-6-yl)pyrimidine-2,4-diamine], the EC50 falls from 170 nM to less than 100 nM. The second is the more potent here.

First: COc1ccc2[nH]cc(CCN(C)c3nccc(Nc4ccc5[nH]c(CO)cc5c4)n3)c2c1 [Example 59, [5-(2-{[2-(5-methoxy-1H-indol-3-yl)ethyl][methyl]amino}pyrimidin-4-ylamino)-1H-indol-2-yl]methanol]
Second: CCOc1ccc2[nH]cc(CCNc3nccc(Nc4ccc5[nH]c(CO)cc5c4)n3)c2c1 [Example 72, [5-({2-[2-(5-ethoxy-1H-indol-3-yl)ethylamino]pyrimidin-4-yl}amino)-1H-indol-2-yl]methanol]
The EC50 of the first is higher: 1000 to 10000 nM for the first, less than 100 nM for the second. The second is the more potent here.

`COc1ccc2[nH]cc(CCNc3nccc(N(C)c4ccc5[nH]c(C)cc5c4)n3)c2c1` [Example 61, N^2-[2-(5-methoxy-1H-indol-3-yl)ethyl]-N^4-methyl-N^4-(2-methyl-1H-indol-5-yl)pyrimidine-2,4-diamine] and `COc1ccc2[nH]cc(CCNc3nccc(N(C)c4ccc5c(c4)cc(C)n5C)n3)c2c1` [Example 62, N^4-(1,2-dimethyl-1H-indol-5-yl)-N^2-[2-(5-methoxy-1H-indol-3-yl)ethyl]-N^4-methylpyrimidine-2,4-diamine] fall in the same range of EC50: 1000 to 10000 nM for the first, 1000 to 10000 nM for the second.

`COc1ccc2[nH]cc(CCNc3nccc(Nc4ccc5cc(C)[nH]c5c4)n3)c2c1` [Example 73, N^2-[2-(5-methoxy-1H-indol-3-yl)ethyl]-N^4-(2-methyl-1H-indol-6-yl)pyrimidine-2,4-diamine] and `COc1ccc2[nH]cc(CCNc3nccc(Nc4cccc5[nH]c(C)cc45)n3)c2c1` [Example 77, N^2-[2-(5-methoxy-1H-indol-3-yl)ethyl]-N^4-(2-methyl-1H-indol-4-yl)pyrimidine-2,4-diamine] cannot be ordered by EC50: less than 100 nM for the first, less than 100 nM for the second.

`COc1ccc2[nH]cc(CCNc3nccc(Nc4ccc5ccn(C)c5c4)n3)c2c1` [Example 75, N^2-[2-(5-methoxy-1H-indol-3-yl)ethyl]-N^4-(1-methylindol-6-yl)pyrimidine-2,4-diamine] and `CCOc1ccc2[nH]cc(CCNc3nccc(Nc4ccc5ccn(C)c5c4)n3)c2c1` [Example 76, N^2-[2-(5-ethoxy-1H-indol-3-yl)ethyl]-N^4-(1-methylindol-6-yl)pyrimidine-2,4-diamine] cannot be ordered by EC50: less than 1000 nM for the first, less than 1000 nM for the second.

`CCOc1ccc2[nH]cc(CCNc3nccc(Nc4cccc5[nH]c(C)cc45)n3)c2c1` [Example 78, N^2-[2-(5-ethoxy-1H-indol-3-yl)ethyl]-N^4-(2-methyl-1H-indol-4-yl)pyrimidine-2,4-diamine] and `CCOc1ccc2[nH]cc(CCNc3nccc(Nc4cccc5[nH]c(C)nc45)n3)c2c1` [Example 83, N^2-[2-(5-ethoxy-1H-indol-3-yl)ethyl]-N^4-(2-methyl-1H-benzimidazol-4-yl)pyrimidine-2,4-diamine] cannot be ordered by EC50: less than 100 nM for the first, less than 1000 nM for the second.

`Cn1ccc2c(Nc3ccnc(NCCc4c[nH]c5ccc(O)cc45)n3)cccc21` [Example 79, 3-[2-({4-[(1-methylindol-4-yl)amino]pyrimidin-2-yl}amino)ethyl]-1H-indol-5-ol] and `CCOc1ccc2[nH]cc(CCNc3nccc(Nc4cccc5c4ccn5C)n3)c2c1` [Example 80, N^2-[2-(5-ethoxy-1H-indol-3-yl)ethyl]-N^4-(1-methylindol-4-yl)pyrimidine-2,4-diamine] cannot be ordered by EC50: less than 1000 nM for the first, less than 100 nM for the second.

`COc1ccc2[nH]cc(CCNc3nccc(Nc4cccc5c4cc(C)n5C)n3)c2c1` [Example 81, N^4-(1,2-dimethylindol-4-yl)-N^2-[2-(5-methoxy-1H-indol-3-yl)ethyl]pyrimidine-2,4-diamine] and `COc1ccc2[nH]cc(CCNc3nccc(Nc4cccc5[nH]c(C)nc45)n3)c2c1` [Example 82, N^2-[2-(5-methoxy-1H-indol-3-yl)ethyl]-N^4-(2-methyl-1H-benzimidazol-4-yl)pyrimidine-2,4-diamine] cannot be ordered by EC50: less than 100 nM for the first, less than 1000 nM for the second.

`COc1ccc2[nH]cc(CCNc3nc(Nc4ccc5c(c4)nc(C)n5C)cc(C(N)=O)n3)c2c1` [Example 86, 6-[(1,2-dimethylbenzimidazol-5-yl)amino]-2-[2-(5-methoxy-1H-indol-3-yl)ethylamino]pyrimidine-4-carboxamide] and `COc1ccc2[nH]cc(CCNc3nc(Nc4cccc5c4ccn5C)cc(C(N)=O)n3)c2c1` [Example 87, 2-[2-(5-methoxy-1H-indol-3-yl)ethylamino]-6-[(1-methylindol-4-yl)amino]pyrimidine-4-carboxamide] cannot be ordered by EC50: less than 1000 nM for the first, less than 100 nM for the second.

`CCOc1ccc2[nH]cc(CCNc3nc(Nc4cccc5c4ccn5C)cc(C(N)=O)n3)c2c1` [Example 88, 2-[2-(5-ethoxy-1H-indol-3-yl)ethylamino]-6-[(1-methylindol-4-yl)amino]pyrimidine-4-carboxamide] and `COc1ccc2[nH]cc(CCNc3nc(Nc4cccc5c4ccn5C)cc(N4CCN(C)CC4)n3)c2c1` [Example 89, N^2-[2-(5-methoxy-1H-indol-3-yl)ethyl]-N^4-(1-methylindol-4-yl)-6-(4-methylpiperazin-1-yl)pyrimidine-2,4-diamine] cannot be ordered by EC50: less than 100 nM for the first, less than 1000 nM for the second.

First: CCOc1ccc2[nH]cc(CCNc3ncc(N)c(Nc4ccc5[nH]c(C)cc5c4)n3)c2c1 [Example 90, N^2-[2-(5-ethoxy-1H-indol-3-yl)ethyl]-N^4-(2-methyl-1H-indol-5-yl)pyrimidine-2,4,5-triamine]
Second: CNC(=O)c1cc(Oc2ccc(NC(=O)Nc3ccc(Cl)c(C(F)(F)F)c3)cc2)ccn1 [Ref. 1, sorafenib, reference compound]
The EC50 of the first is lower: less than 100 nM for the first, 8300 nM for the second. The first is the more potent here.

`Cc1nc(Nc2ncc(C(=O)Nc3c(C)cccc3Cl)s2)cc(N2CCN(CCO)CC2)n1` [Ref. 3, dasatinib, reference compound] gave an EC50 of 9700 nM.
